pIC50: −log10 of the molar value.
Target: T1, HDAC6 (Homo sapiens, UniProt Q9UBN7)
T1 construct: Full length human recombinant HDAC6 protein was expressed in baculoviral system; made in house; host or cells: baculoviral system
T1 sequence (Q9UBN7 1-1215): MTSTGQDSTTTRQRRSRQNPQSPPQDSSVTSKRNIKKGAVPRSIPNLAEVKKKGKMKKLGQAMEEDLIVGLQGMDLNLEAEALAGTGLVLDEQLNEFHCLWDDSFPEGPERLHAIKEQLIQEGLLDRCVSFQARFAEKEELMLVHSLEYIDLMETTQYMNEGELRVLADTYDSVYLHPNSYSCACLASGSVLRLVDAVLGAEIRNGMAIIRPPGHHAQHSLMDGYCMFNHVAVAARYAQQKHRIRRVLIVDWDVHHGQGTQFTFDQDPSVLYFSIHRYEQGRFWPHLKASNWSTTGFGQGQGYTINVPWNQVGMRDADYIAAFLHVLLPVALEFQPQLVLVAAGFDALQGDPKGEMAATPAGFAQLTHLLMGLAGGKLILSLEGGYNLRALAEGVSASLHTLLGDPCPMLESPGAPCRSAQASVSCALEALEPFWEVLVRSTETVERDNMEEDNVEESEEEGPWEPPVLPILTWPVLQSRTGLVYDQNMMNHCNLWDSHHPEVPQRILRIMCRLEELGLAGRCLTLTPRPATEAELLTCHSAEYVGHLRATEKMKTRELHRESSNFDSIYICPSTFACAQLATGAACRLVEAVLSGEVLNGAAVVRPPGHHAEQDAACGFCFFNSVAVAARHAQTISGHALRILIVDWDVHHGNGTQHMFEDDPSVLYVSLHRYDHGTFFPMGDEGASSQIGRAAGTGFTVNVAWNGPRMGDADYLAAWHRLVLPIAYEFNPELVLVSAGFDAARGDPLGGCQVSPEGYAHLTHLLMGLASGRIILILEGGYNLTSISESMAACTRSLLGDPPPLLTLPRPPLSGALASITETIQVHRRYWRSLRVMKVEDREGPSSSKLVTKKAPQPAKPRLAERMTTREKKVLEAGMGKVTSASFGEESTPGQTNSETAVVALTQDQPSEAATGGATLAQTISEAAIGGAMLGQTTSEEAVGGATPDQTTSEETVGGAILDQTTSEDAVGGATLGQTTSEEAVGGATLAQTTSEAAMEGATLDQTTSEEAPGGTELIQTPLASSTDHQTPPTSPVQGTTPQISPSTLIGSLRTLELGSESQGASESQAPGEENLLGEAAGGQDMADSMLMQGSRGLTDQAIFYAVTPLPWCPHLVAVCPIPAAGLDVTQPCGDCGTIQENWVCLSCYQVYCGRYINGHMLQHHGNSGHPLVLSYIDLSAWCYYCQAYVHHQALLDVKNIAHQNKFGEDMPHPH
Assay: In vitro Histone Deacetylase Assay (enzymatic HDAC6 electrophoretic mobility shift assay)
Format: biochemical
Settings: full length human recombinant HDAC6, 1 nM enzyme, 2 μM peptide substrate RHKK(Ac)-NH2, 25° C.; read-out: HDAC6 activity range
Outline: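 Full-length recombinant human HDAC6 (baculovirus-expressed, 1 nM) was incubated at 25 °C with 2 μM fluorescent RHKK(Ac)-NH2 peptide in HEPES pH 7.5, KCl, BSA, Triton X-100 and 1% DMSO, then SDS-quenched. Substrate and product were separated by microfluidic mobility shift, and IC50 came from 4-parameter fits of 12-point, 3-fold dilution curves.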

SMILES | pIC50
O=C(NO)c1ccc2c(c1)CC[C@@]1(CCN(Cc3ccccc3)C1=O)C2 [Compound I-76, (S)-1′-benzyl-N-hydroxy-2′-oxo-3,4-dihydro-1H-spiro[naphthalene-2,3′-pyrrolidine]-6-carboxamide] | ≥ 7.00
O=C(NO)c1ccc2c(c1)CC[C@@]1(CCN(CC(F)(F)F)C1=O)C2 [Compound I-166, (S)-N-hydroxy-2′-oxo-1′-(2,2,2-trifluoroethyl)-3,4-dihydro-1H-spiro[naphthalene-2,3′-pyrrolidine]-6-carboxamide] | 6.30 to 7.00
COc1ccc(CN2CCC3(CCc4cc(C(=O)NO)ccc4C3)C2)cc1 (stereo not drawn) [Compound I-3, N-hydroxy-1′-(4-methoxybenzyl)-3,4-dihydro-1H-spiro[naphthalene-2,3′-pyrrolidine]-6-carboxamide] | 6.30 to 7.00
O=C(NO)c1ccc2c(c1)CC[C@@]1(CCNC1=O)C2 [Compound I-28, (S)-N-hydroxy-2′-oxo-3,4-dihydro-1H-spiro[naphthalene-2,3′-pyrrolidine]-6-carboxamide] | ≥ 7.00
CN(C)c1ccc(N2CC[C@]3(CCc4cc(C(=O)NO)ccc4C3)C2=O)cn1 [Compound I-151, (2R)-1′-[6-(dimethylamino)pyridin-3-yl]-N-hydroxy-2′-oxo-3,4-dihydro-1H-spiro[naphthalene-2,3′-pyrrolidine]-6-carboxamide] | ≥ 7.00
O=C(NO)c1ccc2c(c1)CC[C@@]1(CCN(c3ccc(Cl)cn3)C1=O)C2 [Compound I-130, (S)-1′-(5-chloropyridin-2-yl)-N-hydroxy-2′-oxo-3,4-dihydro-1H-spiro[naphthalene-2,3′-pyrrolidine]-6-carboxamide] | ≥ 7.00
CSc1cccc(N2CC[C@]3(CCc4cc(C(=O)NO)ccc4C3)C2=O)c1 [Compound I-92, (R)-N-hydroxy-1′-(3-(methylthio)phenyl)-2′-oxo-3,4-dihydro-1H-spiro[naphthalene-2,3′-pyrrolidine]-6-carboxamide] | ≥ 7.00
Cc1nn(C)cc1N1CC[C@]2(CCc3cc(C(=O)NO)ccc3C2)C1=O [Compound I-98, (R)-1′-(1,3-dimethyl-1H-pyrazol-4-yl)-N-hydroxy-2′-oxo-3,4-dihydro-1H-spiro[naphthalene-2,3′-pyrrolidine]-6-carboxamide] | ≥ 7.00
O=C(NO)c1ccc2c(c1)CC[C@@]1(CCN(C/C=C/c3ccccc3)C1=O)C2 [Compound I-65, (S)-1′-cinnamyl-N-hydroxy-2′-oxo-3,4-dihydro-1H-spiro[naphthalene-2,3′-pyrrolidine]-6-carboxamide] | ≥ 7.00
O=C(NO)c1ccc2c(c1)CC[C@]1(CCN(CC3CCC3)C1=O)C2 [Compound I-33, (R)-1′-(cyclobutylmethyl)-N-hydroxy-2′-oxo-3,4-dihydro-1H-spiro[naphthalene-2,3′-pyrrolidine]-6-carboxamide] | ≥ 7.00
O=C(NO)c1ccc2c(c1)CC[C@]1(CCN(CC(=O)N3CCOCC3)C1=O)C2 [Compound I-43, (R)-N-hydroxy-1′-(2-morpholino-2-oxoethyl)-2′-oxo-3,4-dihydro-1H-spiro[naphthalene-2,3′-pyrrolidine]-6-carboxamide] | ≥ 7.00
O=C(NO)c1ccc2c(c1)CC[C@@]1(CCN(Cc3ccc4ccccc4c3)C1=O)C2 [Compound I-86, (S)-N-hydroxy-1′-(naphthalen-2-ylmethyl)-2′-oxo-3,4-dihydro-1H-spiro[naphthalene-2,3′-pyrrolidine]-6-carboxamide] | ≥ 7.00
O=C(NO)c1ccc2c(c1)CC[C@@]1(CCN(Cc3ccc4nonc4c3)C1=O)C2 [Compound I-70, (S)-1′-(benzo[c][1,2,5]oxadiazol-5-ylmethyl)-N-hydroxy-2′-oxo-3,4-dihydro-1H-spiro[naphthalene-2,3′-pyrrolidine]-6-carboxamide] | ≥ 7.00
COCCCN1CC2(CCc3cc(C(=O)NO)ccc3C2)CC1=O (single isomer, unassigned) [Compound I-222] | ≥ 7.00
O=C(NO)c1ccc2c(c1)CC[C@@]1(CCN(c3cccc(F)c3)C1=O)C2 [Compound I-117, (S)-1′-(3-fluorophenyl)-N-hydroxy-2′-oxo-3,4-dihydro-1H-spiro[naphthalene-2,3′-pyrrolidine]-6-carboxamide] | ≥ 7.00
O=C(NO)c1ccc2c(c1)CCC1(CCN(Cc3ccccc3)C1=O)O2 (stereo not drawn) [Compound I-232, 1′-benzyl-N-hydroxy-2′-oxospiro[chromane-2,3′-pyrrolidine]-6-carboxamide] | 6.30 to 7.00
O=C(NO)c1ccc2c(c1)CCC1(CCN(c3ccccc3)C1=O)O2 (stereo not drawn) [Compound I-231, N-hydroxy-2′-oxo-1′-phenylspiro[chromane-2,3′-pyrrolidine]-6-carboxamide] | 6.30 to 7.00
O=C(NO)c1ccc2c(c1)CCC1(CCN(Cc3nc4ccccc4[nH]3)C1)C2 (stereo not drawn) [Compound I-1, 1′-((1H-benzo[d]imidazol-2-yl)methyl)-N-hydroxy-3,4-dihydro-1H-spiro[naphthalene-2,3′-pyrrolidine]-6-carboxamide] | ≥ 7.00
N#Cc1ccc(N2CC[C@@]3(CCc4cc(C(=O)NO)ccc4C3)C2=O)cc1 [Compound I-173, (S)-1′-(4-cyanophenyl)-N-hydroxy-2′-oxo-3,4-dihydro-1H-spiro[naphthalene-2,3′-pyrrolidine]-6-carboxamide] | ≥ 7.00
O=C(NO)c1ccc2c(c1)CC[C@]1(CCN(Cc3cc(Cl)ccc3Cl)C1=O)C2 [Compound I-48, (R)-1′-(2,5-dichlorobenzyl)-N-hydroxy-2′-oxo-3,4-dihydro-1H-spiro[naphthalene-2,3′-pyrrolidine]-6-carboxamide] | ≥ 7.00
CN1CCC2(CCc3cc(C(=O)NO)ccc3S2(=O)=O)C1=O (stereo not drawn) [Compound I-244, N-hydroxy-1-methyl-2-oxospiro[pyrrolidine-3,2′-thiochromane]-6′-carboxamide 1′,1′-dioxide] | < 6.30
O=C(NO)c1ccc2c(c1)CC[C@@]1(CCN(c3cccnc3)C1=O)C2 [Compound I-11, (S)-N-hydroxy-2′-oxo-1′-(pyridin-3-yl)-3,4-dihydro-1H-spiro[naphthalene-2,3′-pyrrolidine]-6-carboxamide] | ≥ 7.00
CC(C)CCN1CC[C@]2(CCc3cc(C(=O)NO)ccc3C2)C1=O [Compound I-34] | ≥ 7.00
O=C(NO)c1ccc2c(c1)CCC1(CCN(Cc3ccncc3)C1=O)S2(=O)=O (stereo not drawn) [Compound I-242, N-hydroxy-2-oxo-1-(pyridin-4-ylmethyl)spiro[pyrrolidine-3,2′-thiochromane]-6′-carboxamide 1′,1′-dioxide] | < 6.30
COc1cc(N2CC[C@@]3(CCc4cc(C(=O)NO)ccc4C3)C2=O)ccn1 [Compound I-150, (S)-N-hydroxy-1′-(2-methoxypyridin-4-yl)-2′-oxo-3,4-dihydro-1H-spiro[naphthalene-2,3′-pyrrolidine]-6-carboxamide] | ≥ 7.00
O=C(NO)c1ccc2c(c1)CC[C@@]1(CCN(Cc3ccc(OC(F)(F)F)cc3)C1=O)C2 [Compound I-80, (S)-N-hydroxy-2′-oxo-1′-(4-(trifluoromethoxy)benzyl)-3,4-dihydro-1H-spiro[naphthalene-2,3′-pyrrolidine]-6-carboxamide] | 6.30 to 7.00
O=C(NO)c1ccc2c(c1)CC[C@]1(CCN(Cc3ccc(S(=O)(=O)C(F)(F)F)cc3)C1=O)C2 [Compound I-106, (R)-N-hydroxy-2′-oxo-1′-(4-((trifluoromethyl)sulfonyl)benzyl)-3,4-dihydro-1H-spiro[naphthalene-2,3′-pyrrolidine]-6-carboxamide] | ≥ 7.00
CN1CCC[C@]2(CCc3cc(C(=O)NO)ccc3C2)C1=O (single isomer, unassigned) [Compound I-180] | ≥ 7.00
CC(C)N1CC2(CCc3cc(C(=O)NO)ccc3C2)CC1=O (single isomer, unassigned) [Compound I-208] | ≥ 7.00
O=C(NO)c1ccc2c(c1)CC[C@@]1(CCCN(C3CCCC3)C1=O)C2 [Compound I-199, (R)-1′-cyclopentyl-N-hydroxy-2′-oxo-3,4-dihydro-1H-spiro[naphthalene-2,3′-piperidine]-6-carboxamide] | ≥ 7.00
